Data set [1] in a line: Hemodynamic test (blood pressure and heart rate during intravenous injection). Type of data set: in vivo, Male SD rats. To be noted: rat, i.v. On the procedure:
Male SD rats (nine weeks old, body weight: 270 g to 320 g, supplied by Japan SLC, Inc.) were employed. Each of the rats was anesthetized with pentobarbital sodium (30 mg/kg, intraperitoneal injection) and then fixed in the dorsal position. A tube was orally inserted into the trachea, and artificial ventilation was carried out by means of a ventilator for small animals. A catheter (INTRAMEDIC Polyethylene Tubing PE50, CLAY ADAMS) was inserted into the femoral artery and the femoral vein, and systolic blood pressure, diastolic blood pressure, and mean blood pressure were measured in the femoral artery. Heart rate was measured by means of an electrocardiograph. A drug sample was injected through the catheter indwelled in the femoral vein by means of a syringe pump (Model PHD 4400, HARVARD). Specifically, after stabilization of hemodynamics, empty liposomes (n=8), adenosine only (n=8), and adenosine-retaining liposomes (n=8) were injected transvenously, respectively.
In an empty liposome group, injection was carried out at 0.05 mL/minute for 10 minutes (one minute, five minutes, and 10 minutes after initiation of injection, blood pressure and heart rate were evaluated), and, for five minutes after completion of injection, blood pressure and heart rate were evaluated. Thereafter, evaluation was carried out in a manner similar to that described above at an injection rate of 0.1 mL/minute, 0.2 mL/minute, or 0.4 mL/minute. In an adenosine-only group or an adenosine-retaining liposome group, injection was initiated at 0.05 mL/minute (225 μg/kg/minute as reduced to adenosine), and cumulative administration was carried out through the same protocol as in the case of the empty liposome group.

The conditions of data set [2]: cited from earlier work.
Data set [3] relates to ischemia-reperfusion model rat. As to the kind of experiment: Ischemia-reperfusion test (rat), myocardial infarct size. Type of data set: in vivo, Male SD rats. To be noted: 900 μg/kg/minute i.v. for 10 minutes, injection before ischemia, 72 hours after reperfusion. On the procedure:
Similar to the case of the hemodynamic test, male SD rats were employed. Each of the rats was anesthetized and artificially ventilated, and then thoracotomy was carried out at the thoracic sidewall. The left anterior descending coronary artery (LAD) was ligated by means of a suturing needle with suture for 30 minutes, and then blood flow was restored, to thereby prepare an ischemia-reperfusion model. A drug sample was injected through a catheter (INTRAMEDIC Polyethylene Tubing PE50, CLAY ADAMS) indwelled in the femoral vein.
In this test, an adenosine-retaining liposome group were divided into two groups: a group received adenosine-retaining liposomes before ischemia (injected for 10-minute before ischemia), and a group received adenosine-retaining liposomes before reperfusion (injected for 10-minute initiated 5 minutes before reperfusion). In the other groups, injection was carried out before ischemia (injected for 10-minute before ischemia). […]
Each of the rats was anesthetized 72 hours after reperfusion, and then thoracotomy was carried out again. […] After staining, the specimens were photographed, and an ischemic risk area (non-Evans blue-stained area) and an infarct area (non-TTC-stained area) were determined by means of Win ROOF Version 5.5 (product of Mitani Corporation). Infarct size was calculated by dividing the infarct area by the ischemic risk area.

The mark [4] stands for this setting: ten minutes after initiation of adenosine injection at 225 μg/kg/minute.
Setting [5] is: ten minutes after initiation of adenosine injection at 450 μg/kg/minute.
The mark [6] stands for this setting: ten minutes after initiation of adenosine injection at 900 μg/kg/minute.
[7] abbreviates: ten minutes after initiation of adenosine injection at 1,800 μg/kg/minute.

Structures are written as SMILES.

Turning to `Nc1ncnc2c1ncn2[C@@H]1O[C@H](CO)[C@@H](O)[C@H]1O` [adenosine, Adenosine], the heart rate in data set [1] (setting [4]) was found to be 357±25 bpm; in data set [1] (setting [5]) it was 324±25 bpm; in data set [1] (setting [6]), 296±12 bpm; in data set [1] (setting [7]), 236±17 bpm. Further, the mean blood pressure was found to be 101±12 mmHg in data set [1] (setting [4]), 93±14 mmHg in data set [1] (setting [5]), 84±11 mmHg in data set [1] (setting [6]) and 75±11 mmHg in data set [1] (setting [7]). Also, the “half life in blood” value in data set [2] was below 10 s. Also, the “myocardial infarct size (infarct area / ischemic risk area)” value in data set [3] was determined as 25.2±1.9%.
